Test results reported in PubChem BioAssay AID256 (DTP/NCI, 2004).
“And” between values parts separate entries of the source, which are not always exact repeats. Equal entries are not always repeated. Toxic doses and inconclusive results are not listed. Rule for the calls: active = survival T/C of 150% or more; inactive = T/C below 125% in these data.

Test system: CD2F1 mice, L1210 leukemia ip, survival T/C
Assay: NCI In Vivo Anticancer Drug Screen. Data for tumor model L1210 Leukemia (intraperitoneal) in CD2F1 (CDF1) mice
Conditions: higher = longer survival
Method in brief: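 Vehicle-treated tumor-bearing mice served as controls (C) for compound-treated mice (T). Reported figure is T divided by C.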

[1] = endpoint: mean survival time, dose: 100.0 mg/kg/injection, schedule: Q01DX001 (ip), vehicle: saline with Tween-80
[2] = endpoint: mean survival time, dose: 200.0 mg/kg/injection, schedule: Q01DX001 (ip), vehicle: saline with Tween-80
[3] = endpoint: mean survival time, dose: 400.0 mg/kg/injection, schedule: Q01DX001 (ip), vehicle: saline with Tween-80
[4] = endpoint: mean survival time, dose: 100.0 mg/kg/injection, schedule: Q04DX003 (ip), vehicle: saline with Tween-80
[5] = endpoint: mean survival time, dose: 200.0 mg/kg/injection, schedule: Q04DX003 (ip), vehicle: saline with Tween-80
[6] = endpoint: mean survival time, dose: 400.0 mg/kg/injection, schedule: Q04DX003 (ip), vehicle: saline with Tween-80

Measured: T/C

COc1cc2nncc(Sc3cnnc4ccccc34)c2cc1OC
inactive: endpoint: mean survival time, dose: 100.0 mg/kg/injection, schedule: Q01DX001 (ip), vehicle: other 92 % of control | endpoint: mean survival time, dose: 200.0 mg/kg/injection, schedule: Q01DX001 (ip), vehicle: other 86 % of control | endpoint: mean survival time, dose: 400.0 mg/kg/injection, schedule: Q01DX001 (ip), vehicle: other 92 % of control

O=C1c2ccccc2C(=O)N1CCCCN1C(=O)c2ccccc2C1=O
inactive: [1] 90 % of control | [2] 87 % of control | [3] 90 % of control

COC(=O)C1C(C(=O)OC)C2C3C4C1C1C2C1C43 (centres undefined)
inactive: [4] 102 % of control | [5] 102 % of control | [6] 104 % of control

CCOC(=O)NC(=S)n1ncnc1N
inactive: endpoint: mean survival time, dose: 12.5 mg/kg/injection, schedule: Q04DX003 (ip), vehicle: saline 97 % of control | endpoint: mean survival time, dose: 25.0 mg/kg/injection, schedule: Q04DX003 (ip), vehicle: saline 102 % of control

Cc1cn(C2CC(OP(=O)(O)OCC3OC(n4ccc(N)nc4=O)C(O)C3O)C(CO)O2)c(=O)[nH]c1=O (centres undefined)
inactive: endpoint: median survival time, dose: 5.0 mg/kg/injection, schedule: Q01DX005 (ip), vehicle: saline 107 % of control | endpoint: median survival time, dose: 10.0 mg/kg/injection, schedule: Q01DX005 (ip), vehicle: saline 117 % of control | endpoint: median survival time, dose: 25.0 mg/kg/injection, schedule: Q01DX005 (ip), vehicle: saline 122 % of control

Cc1ccc(S(=O)(=O)NN2CCOC2=O)cc1
inactive: endpoint: mean survival time, dose: 50.0 mg/kg/injection, schedule: Q01DX009 (ip), vehicle: Klucel (hydroxypropylcellulose) (HPC) 100 % of control | endpoint: mean survival time, dose: 100.0 mg/kg/injection, schedule: Q01DX009 (ip), vehicle: Klucel (hydroxypropylcellulose) (HPC) 91 % of control | endpoint: mean survival time, dose: 200.0 mg/kg/injection, schedule: Q01DX009 (ip), vehicle: Klucel (hydroxypropylcellulose) (HPC) 100 % of control

O=C(O)CC(C(=O)O)C(=O)O
inactive: endpoint: mean survival time, dose: 100.0 mg/kg/injection, schedule: Q04DX003 (ip), vehicle: saline 100 % of control | endpoint: mean survival time, dose: 200.0 mg/kg/injection, schedule: Q04DX003 (ip), vehicle: saline 97 % of control | endpoint: mean survival time, dose: 400.0 mg/kg/injection, schedule: Q04DX003 (ip), vehicle: saline 94 % of control

FC(F)(F)c1cccc(NC2=NCCS2)c1
inactive: endpoint: mean survival time, dose: 12.5 mg/kg/injection, schedule: Q01DX001 (ip), vehicle: saline with Tween-80 106 % of control | endpoint: mean survival time, dose: 25.0 mg/kg/injection, schedule: Q01DX001 (ip), vehicle: saline with Tween-80 110 % of control | endpoint: mean survival time, dose: 50.0 mg/kg/injection, schedule: Q01DX001 (ip), vehicle: saline with Tween-80 101 % of control | [1] 110 % of control | [2] 106 % of control | [3] 105 % of control

Cc1c2ccccc2cc2cc[n+]3ccccc3c12
inactive: endpoint: mean survival time, dose: 10.0 mg/kg/injection, schedule: Q01DX009 (ip), vehicle: Klucel (hydroxypropylcellulose) (HPC) 92 % of control | endpoint: mean survival time, dose: 20.0 mg/kg/injection, schedule: Q01DX009 (ip), vehicle: Klucel (hydroxypropylcellulose) (HPC) 103 % of control | endpoint: mean survival time, dose: 40.0 mg/kg/injection, schedule: Q01DX009 (ip), vehicle: Klucel (hydroxypropylcellulose) (HPC) 92 % of control

Nc1c(Cl)cc(Cl)c(-c2c(Cl)cc(Cl)c(N)c2Cl)c1Cl
inactive: endpoint: mean survival time, dose: 12.5 mg/kg/injection, schedule: Q01DX009 (ip), vehicle: other 100 % of control | endpoint: mean survival time, dose: 25.0 mg/kg/injection, schedule: Q01DX009 (ip), vehicle: other 101 % of control | endpoint: mean survival time, dose: 50.0 mg/kg/injection, schedule: Q01DX009 (ip), vehicle: other 101 % of control | endpoint: mean survival time, dose: 100.0 mg/kg/injection, schedule: Q01DX009 (ip), vehicle: other 97 % of control | endpoint: mean survival time, dose: 200.0 mg/kg/injection, schedule: Q01DX009 (ip), vehicle: other 94 % of control

C=C1C(=O)OC2/C=C(\C)C3OC3/C=C(/C(=O)OC)C(O)C(OC(=O)C3(C)OC3C)C12 (centres undefined)
inactive: [1] 104 % of control

CCOC(=O)Cc1nc2ccccc2[nH]1
inactive: [1] 95 % of control | endpoint: mean survival time, dose: 100.0 mg/kg/injection, schedule: Q04DX002 (ip), vehicle: saline with Tween-80 101 % of control | [4] 90 % of control and 102 % of control | [2] 95 % of control | endpoint: mean survival time, dose: 200.0 mg/kg/injection, schedule: Q04DX002 (ip), vehicle: saline with Tween-80 93 % of control | [5] 93 % of control and 97 % of control | [3] 93 % of control | endpoint: mean survival time, dose: 400.0 mg/kg/injection, schedule: Q04DX002 (ip), vehicle: saline with Tween-80 95 % of control | [6] 91 % of control
